pIC50: −log10 of the molar value. Where two headings read alike, the source gives them in different places.
Biological target: T1, LOX (Mus musculus, UniProt P28301)
T1 construct: Full length LOX cDNA was then PCR cloned into pEGFP-N1 (Clonetech), or biosensor vector proGFP2-N1; expressed in transfected cells; host or cells: MDCK cells grown as cysts on Matrigel, G418-selected
T1 sequence (P28301 163-411): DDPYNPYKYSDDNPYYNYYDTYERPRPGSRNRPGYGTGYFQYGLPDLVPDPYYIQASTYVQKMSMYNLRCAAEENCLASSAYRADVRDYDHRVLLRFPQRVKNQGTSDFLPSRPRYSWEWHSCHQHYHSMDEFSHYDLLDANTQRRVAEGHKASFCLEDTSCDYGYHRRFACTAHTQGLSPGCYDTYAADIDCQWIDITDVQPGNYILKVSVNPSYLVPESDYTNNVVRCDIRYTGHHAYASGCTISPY
Assay: LOX activity in cysts assay (LOX-roGFP2 biosensor, MDCK cysts)
Format: cell-based
Conditions: for inhibition at 10 µM: read-out: LOX biosensor inhibition (cyst) @ 10 uM; for pIC50: roGFP2 ratio at basal surface, read-out: LOX biosensor IC50 (cyst)
Method: LOX Activity in Cysts Assay (Tang et al, 2017).
All cell lines used in this study were purchased from American Type Culture Collection (ATCC). Mycoplasma contamination was routinely monitored by PCR. Cells used were not found to be Mycoplasma positive. MDCK cell lines were cultured in Dulbecco's Modified Eagle Medium (DMEM) supplemented with 10% fetal bovine serum (FBS) and 1% Penicillin Streptomycin solution (Pen Strep). For GFP constructs transfection in MDCK cells, lipofectamine 3000 was used according to manufactures protocols. Cells were either selected with G418 (Life Technologies) at 5 mg/ml. All cell culture reagents were purchased from Life Technologies.
To produce MDCK cysts, cells were cultured on Matrigel (Corning) with 2% Matrigel supplemented in DMEM with 10% FBS. Cysts were allowed to form for 10 days before subsequent studies.
Mouse LOX cDNA was purchased from OriGene. Full length LOX cDNA was then PCR cloned into pEGFP-N1 (Clonetech), or biosensor vector proGFP2-N1 (Hanson, 2004) using the following primers, […] (forward primer) and […] (reverse primer). For the insertion into pEGFP-N1 or proGFP2-N1, NheI and XhoI restriction sites were added to forward and reverse primers accordingly. Mutant LOX constructs were made using QuickChange II site-directed mutagenesis kit (Agilent Technologies) following manufacture's protocol using LOX-GFP as template. To generate, roGFP2 versions of LOX mutant constructs, LOX mutant cDNA was transferred from pEGFP-N1 to proGFP2-N1 using NheI and XhoI.
All photomicrographs were taken with a Leica TCS SP8 X confocal system. For LOX biosensor imaging, live MDCK cysts were used. The oxidised biosensor was excited using a 405 nm laser, while the reduced biosensor was excited with a 488 nm laser. Emission of the biosensor was recorded at 500 nm˜530 nm range using sequential scans. Ratio images were generated following a published protocol {Kardash, 2011 #376}. Note, while the published protocol generates YFP/CFP ratio images, we used it to generate Oxidised/Reduced (roGFP2 ratio) ratio images. The roGFP2 ratio at the basal surface of MDCK cysts was used to indicate LOX inhibition. LOX inhibitors were added 30 min prior to imaging.
For clarity, readout for DMSO treated cysts represents 0% inhibition (no inhibition) and readout for BAPN at 1 mM is used as 100% inhibition (full inhibition).

[1] = 10 uM, MDCK cysts, inhibitor added 30 min prior to imaging, DMSO = 0%, BAPN 1 mM = 100% inhibition

| SMILES | inhibition at 10 µM [1] [%] | also measured |
| --- | --- | --- |
| CCOc1ccc(N2C[C@H]3CN(C(=O)N(CCO)CCO)C[C@@H]2C(C)(C)C3)cc1 [Example 14, (1S,5S)-6-(4-ethoxyphenyl)-N,N-bis(2-hydroxyethyl)-9,9-dimethyl-3,6-diazabicyclo[3.2.2]nonane-3-carboxamide] | 75 |  |
| CNS(=O)(=O)N1C[C@@H]2CN(c3ccc(OC)cc3)[C@H](C1)C(C)(C)C2 [Example 56, (1S,5S)-6-(4-methoxyphenyl)-N,9,9-trimethyl-3,6-diazabicyclo[3.2.2]nonane-3-sulfonamide] | 74 |  |
| CNC(=O)N1C[C@@H]2CN(c3ccc(N4CCS(=O)(=O)CC4)cc3)[C@H](C1)C(C)(C)C2 [Example 6, (1S,5S)-6-(4-(1,1-dioxidothiomorpholino)phenyl)-N,9,9-trimethyl-3,6-diazabicyclo[3.2.2]nonane-3-carboxamide] | 50 |  |
| CCOc1ccc(N2C[C@H]3CN(CC4(CC#N)CC4)C[C@@H]2C(C)(C)C3)cc1 [Example 43, 2-(1-(((1R,5S)-6-(4-ethoxyphenyl)-9,9-dimethyl-3,6-diazabicyclo[3.2.2]nonan-3-yl)methyl)cyclopropyl)acetonitrile] | 59 |  |
| CCOc1ccc(N2C[C@H]3CN(CCc4cn[nH]c4)C[C@@H]2C(C)(C)C3)cc1 [Example 48, (1R,5S)-3-(2-(1H-pyrazol-4-yl)ethyl)-6-(4-ethoxyphenyl)-9,9-dimethyl-3,6-diazabicyclo[3.2.2]nonane] | 100 |  |
| N#CCCN [BAPN, β-aminopropionitrile, reference compound] |  | LOX inhibition in cysts assay (reference used as full inhibition) (1 mM, readout used as 100% inhibition): 100% |
| CCOc1cccc(N2C[C@H]3CN(C(=O)NCCO)C[C@@H]2C(C)(C)C3)c1 [Example 24, (1S,5S)-6-(3-ethoxyphenyl)-N-(2-hydroxyethyl)-9,9-dimethyl-3,6-diazabicyclo[3.2.2]nonane-3-carboxamide] | 100 | pIC50 (MDCK cysts): > 6.20 |
| CCOc1ccc(N2C[C@H]3CN(S(=O)(=O)N4CCOCC4)C[C@@H]2C(C)(C)C3)cc1 [Example 57, 4-(((1S,5S)-6-(4-ethoxyphenyl)-9,9-dimethyl-3,6-diazabicyclo[3.2.2]nonan-3-yl)sulfonyl)morpholine] | 93 |  |
| CC1(C)C[C@@H]2CN(C(=O)NCCO)C[C@H]1N(c1ccc(N3CCCCC3)cc1)C2 [Example 32, (1S,5S)-N-(2-hydroxyethyl)-9,9-dimethyl-6-(4-(piperidin-1-yl)phenyl)-3,6-diazabicyclo[3.2.2]nonane-3-carboxamide] | 90 | pIC50 (MDCK cysts): > 6.74 |
| CC1(C)C[C@@H]2CN(C(=O)N3CCS(=O)(=O)CC3)C[C@H]1N(c1cccc(N3CCS(=O)(=O)CC3)c1)C2 [Example 64, (1,1-dioxidothiomorpholino)((1S,5S)-6-(3-(1,1-dioxidothiomorpholino)phenyl)-9,9-dimethyl-3,6-diazabicyclo[3.2.2]nonan-3-yl)methanone] | 100 |  |
| CCOc1ccc(N2C[C@H]3CC(C)(C)[C@@H]2CCN3C(=O)NCCO)cc1 [Example 22, (1R,5S)-6-(4-ethoxyphenyl)-N-(2-hydroxyethyl)-9,9-dimethyl-2,6-diazabicyclo[3.2.2]nonane-2-carboxamide] | 100 |  |
| CCOc1ccc(N2C[C@H]3CN(C(=O)NC[C@@H](O)CO)C[C@@H]2C(C)(C)C3)cc1 [Example 19, (1S,5S)-N-((R)-2,3-dihydroxypropyl)-6-(4-ethoxyphenyl)-9,9-dimethyl-3,6-diazabicyclo[3.2.2]nonane-3-carboxamide] | 100 |  |
| CC1(C)C[C@@H]2CN(C(=O)NCCO)C[C@H]1N(c1ccc(Br)cc1)C2 [Example 35, (1S,5S)-6-(4-Bromophenyl)-N-(2-hydroxyethyl)-9,9-dimethyl-3,6-diazabicyclo[3.2.2]nonane-3-carboxamide] | 84.1 |  |
| CC1(C)C[C@@H]2CN(C(=O)N3CCS(=O)(=O)CC3)C[C@H]1N(c1ccc(N3CCN(S(C)(=O)=O)CC3)cc1)C2 [Example 31, ((1S,5S)-9,9-dimethyl-6-(4-(4-(methylsulfonyl)-1λ4-piperazin-1-yl)phenyl)-3,6-diazabicyclo[3.2.2]nonan-3-yl)(1,1-dioxidothiomorpholino)methanone] | 100 | pIC50 (MDCK cysts): > 6.74 |
| CC1(C)C[C@@H]2CN(C(=O)NCCO)C[C@H]1N(c1ccc(SCCO)cc1)C2 [Example 34, (1S,5S)-N-(2-Hydroxyethyl)-6-(4-((2-hydroxyethyl)thio)phenyl)-9,9-dimethyl-3,6-diazabicyclo[3.2.2]nonane-3-carboxamide] |  | inhibition at 10 µM (MDCK): 100% |
| CCOc1ccc(N2C[C@H]3CN(CCCC#N)C[C@@H]2C(C)(C)C3)cc1F [Example 45, 4-((1R,5S)-6-(4-Ethoxy-3-fluorophenyl)-9,9-dimethyl-3,6-diazabicyclo[3.2.2]nonan-3-yl)butanenitrile] | 42 |  |
| CCOc1ccc(N2C[C@H]3CN(C4CCN(C)CC4)C[C@@H]2C(C)(C)C3)cc1 [Example 47, (1R,5S)-6-(4-ethoxyphenyl)-9,9-dimethyl-3-(1-methylpiperidin-4-yl)-3,6-diazabicyclo[3.2.2]nonane] | 90 |  |
| CCNC(=O)N1C[C@@H]2CN(c3ccc(OCCOC)cc3)[C@H](C1)C(C)(C)C2 [Example 3, (1S,5S)—N-ethyl-6-(4-(2-methoxyethoxy)phenyl)-9,9-dimethyl-3,6-diazabicyclo[3.2.2]nonane-3-carboxamide] | 88 |  |
| CCOc1ccc(N2C[C@H]3CN(C(=O)CNC(=N)CN)C[C@@H]2C(C)(C)C3)cc1 [Example 53, 2-amino-N-(2-((1S,5S)-6-(4-ethoxyphenyl)-9,9-dimethyl-3,6-diazabicyclo[3.2.2]nonan-3-yl)-2-oxoethyl)acetimidamide] | 100 |  |
| CCOc1ccc(N2C[C@@H]3CN(C(=O)NCCO)C[C@H]2C(C)(C)C3)cc1 [Example 21, (1R,5R)-6-(4-ethoxyphenyl)-N-(2-hydroxyethyl)-9,9-dimethyl-3,6-diazabicyclo[3.2.2]nonane-3-carboxamide] | 94 |  |
| CCOc1ccc(N2C[C@H]3CN(C(=O)NNCCO)C[C@@H]2C(C)(C)C3)cc1 (stereo in doubt) [Example 29, 6-(4-ethoxyphenyl)-N′-(2-hydroxyethyl)-9,9-dimethyl-3,6-diazabicyclo[3.2.2]nonane-3-carbohydrazide] | 100 |  |
| CCOc1ccc(N2C[C@H]3CN(C(=O)N4CCC(C#N)CC4)C[C@@H]2C(C)(C)C3)cc1 [Example 17, 1-((1S,5S)-6-(4-ethoxyphenyl)-9,9-dimethyl-3,6-diazabicyclo[3.2.2]nonane-3-carbonyl)piperidine-4-carbonitrile] |  | inhibition at 2.5 µM (2.5 uM (stated in cell), MDCK cysts, DMSO = 0%, BAPN 1 mM = 100% inhibition, read-out: LOX biosensor inhibition (cyst) @ 2.5 uM): 77% |
| CCOc1ccc(N2C[C@@H]3CC(C)(C)[C@H]2CCN3C(=O)NCCO)cc1 [Example 20, (1S,5R)-6-(4-ethoxyphenyl)-N-(2-hydroxyethyl)-9,9-dimethyl-2,6-diazabicyclo[3.2.2]nonane-2-carboxamide] | 79 |  |
| CC1(C)C[C@@H]2CN(C(=O)NC3CCS(=O)(=O)CC3)C[C@H]1N(c1ccc(N3CCS(=O)(=O)CC3)cc1)C2 [Example 11, (1S,5S)-N-(1,1-dioxidotetrahydro-2H-thiopyran-4-yl)-6-(4-(1,1-dioxidothiomorpholino)phenyl)-9,9-dimethyl-3,6-diazabicyclo[3.2.2]nonane-3-carboxamide] | 100 |  |

Source: patent US12060360B2, “Lysyl oxidase inhibitors” (The Institute of Cancer Research: Royal Cancer Hospital, priority 2017, dated 2024)
